For assay [1], the system named is HAP1 MTAP-intact cell line. The experiment in a line: SDMA in-cell western assay, HAP1 MTAP-intact. The assay is classed as cell-based. Conditions: Homo sapiens, HAP1, SDMA in-cell western, HAP1 MTAP-intact; read-out: MTAP HAP1 intact IC50. The procedure, abridged: (§1)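 Readout: in-cell western detection of SDMA. Cells: HAP1 expressing endogenous MTAP and an MTAP-null HAP1 counterpart. Output: IC50.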

Assay [2] deals with HAP1 MTAP-deleted cell line. The experiment in a line: Viability assay, MTAP-deleted cell line. The assay is classed as cell-based. Particulars: Homo sapiens, HAP1, viability assay, MTAP-deleted cell line; read-out: HAP1 MTAP deleted viability. An excerpt:
Table 1 additionally indicates IC50 values in a viability assay for the MTAP-deleted cell line (column 10), indicating the effect of treatment with compound on cell survival.

Assay [3] relates to HAP1 MTAP-deleted cell line. Description: SDMA in-cell western assay, HAP1 MTAP-deleted. It counts as cell-based. Particulars: for IC50: Homo sapiens, HAP1, SDMA in-cell western, HAP1 MTAP-deleted, read-out: HAP1 MTAP deleted IC50; for MTAP intact/deleted ratio: IC50 ratio HAP1 MTAP-intact / HAP1 MTAP-deleted, SDMA in-cell western. The method, boiled down: as §1
Assay [4] concerns the target T1, PRMT5 (Homo sapiens, UniProt O14744).
T1 construct: purchased Viva (custom protein)
The experiment in a line: PRMT5 biochemical IC50 assay with MTA as cofactor. Particulars: PRMT5, MTA as cofactor; read-out: MTA IC50.

In assay [5] the target is T1, PRMT5. The experiment in a line: PRMT5 biochemical IC50 assay with no cofactor. Particulars: PRMT5, no cofactor; read-out: No Cofactor/rel IC50. From the text: Table 1 indicates IC50 values (μM) against PRMT5 for exemplary compounds in the presence of SAM as cofactor, with no cofactor, and with MTA as cofactor, respectively (columns 4-6). […] Ki values can be calculated from the IC50 values as described in the Examples section. As detailed in the Examples section, for the assay performed in the presence of SAM, IC50=Ki×1.5 (Ki=IC50/1.5).

Assay [6] concerns the target T1, PRMT5. Description: PRMT5 biochemical IC50 assay with SAM as cofactor. Conditions: PRMT5, SAM as cofactor; read-out: SAM IC50.

Each structure is given as a SMILES string.

T1 sequence (O14744 whole entry): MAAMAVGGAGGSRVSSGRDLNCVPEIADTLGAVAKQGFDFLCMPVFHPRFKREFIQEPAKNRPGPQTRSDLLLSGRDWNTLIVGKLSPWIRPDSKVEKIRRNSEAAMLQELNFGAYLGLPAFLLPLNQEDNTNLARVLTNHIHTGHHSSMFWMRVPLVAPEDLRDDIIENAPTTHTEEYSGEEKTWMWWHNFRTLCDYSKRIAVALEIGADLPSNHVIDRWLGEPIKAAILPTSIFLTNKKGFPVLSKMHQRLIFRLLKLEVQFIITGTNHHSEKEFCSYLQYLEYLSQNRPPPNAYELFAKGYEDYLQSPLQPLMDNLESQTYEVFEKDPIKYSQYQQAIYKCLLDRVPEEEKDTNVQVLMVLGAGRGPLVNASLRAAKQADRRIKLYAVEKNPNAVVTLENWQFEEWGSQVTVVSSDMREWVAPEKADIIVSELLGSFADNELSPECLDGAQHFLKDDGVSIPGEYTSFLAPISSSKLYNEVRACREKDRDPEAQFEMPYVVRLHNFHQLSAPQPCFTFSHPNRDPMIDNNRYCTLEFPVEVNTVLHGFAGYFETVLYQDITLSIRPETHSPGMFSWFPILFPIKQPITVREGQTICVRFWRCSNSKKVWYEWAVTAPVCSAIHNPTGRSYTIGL
T1 sequence (Q9BQA1 whole entry partner): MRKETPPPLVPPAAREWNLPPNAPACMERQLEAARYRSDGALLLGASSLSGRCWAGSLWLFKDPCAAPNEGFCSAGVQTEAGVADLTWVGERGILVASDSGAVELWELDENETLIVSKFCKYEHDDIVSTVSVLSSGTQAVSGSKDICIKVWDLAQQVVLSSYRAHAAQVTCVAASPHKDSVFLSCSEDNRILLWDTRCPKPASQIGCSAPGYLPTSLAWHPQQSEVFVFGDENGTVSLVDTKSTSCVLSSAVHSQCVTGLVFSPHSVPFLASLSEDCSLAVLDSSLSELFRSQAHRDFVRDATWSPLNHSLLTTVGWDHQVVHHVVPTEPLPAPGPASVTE

As to `C[C@H]1CC[C@H](c2cc(F)c(F)c(F)c2)N(C(=O)C(=O)Nc2cncc(C(N)=O)c2)C1` (single isomer, unassigned) [Compound 477], the IC50 is more than 1000 nM in assay [1]; 1000 to 10000 nM in assay [2]; less than 100 nM in assay [3]; less than 50 nM at PRMT5 [4]; 50 to 500 nM on PRMT5 [5]; 50 to 500 nM on PRMT5 [6]. The MTAP intact/deleted ratio result in assay [3] is given as “A (an IC50 ratio greater than or equal to 10 fold)”.

As to `Cc1cc(NC(=O)C(=O)N2C[C@H](C)CC[C@H]2c2cc(F)c(F)c(F)c2)cnc1N` (single isomer, unassigned) [Compound 478], the IC50 is more than 1000 nM in assay [1]; 1000 to 10000 nM in assay [2]; 100 to 1000 nM in assay [3]; less than 50 nM at PRMT5 [4]; 50 to 500 nM on PRMT5 [5]; 50 to 500 nM at PRMT5 [6]. The MTAP intact/deleted ratio entry in assay [3] is recorded as “A (an IC50 ratio greater than or equal to 10 fold)”.

In the case of `C[C@@H]1CC[C@@H](c2ccccc2)N(C(=O)C(=O)Nc2cncc(C(N)=O)c2)[C@H]1C` (single isomer, unassigned) [Compound 482], the IC50 in assay [1] is more than 1000 nM; in assay [2], less than 1000 nM; in assay [3], less than 100 nM; at PRMT5 [4], less than 50 nM; at PRMT5 [5], 50 to 500 nM; on PRMT5 [6], 50 to 500 nM. Further, in assay [3], the MTAP intact/deleted ratio result is given as “A (an IC50 ratio greater than or equal to 10 fold)”.

As for `C[C@@H]1[C@@H](C)CC[C@H](c2ccccc2)N1C(=O)C(=O)Nc1cncc(C(N)=O)c1` (single isomer, unassigned) [Compound 483], the IC50 is more than 1000 nM in assay [1]; more than 10000 nM in assay [2]; more than 1000 nM in assay [3]; more than 500 nM on PRMT5 [4]; more than 500 nM on PRMT5 [5]; more than 500 nM on PRMT5 [6]. Besides, the MTAP intact/deleted ratio entry in assay [3] is recorded as “C (an IC50 ratio of less than 3 fold)”.

With `Cc1ccc([C@H]2CC[C@H](C)CN2C(=O)C(=O)Nc2cncc(C(N)=O)c2)cc1Cl` (single isomer, unassigned) [Compound 484], the IC50 was more than 1000 nM in assay [1]; 1000 to 10000 nM in assay [2]; less than 100 nM in assay [3]; less than 50 nM at PRMT5 [4]; 50 to 500 nM at PRMT5 [5]; 50 to 500 nM at PRMT5 [6]. Further, the MTAP intact/deleted ratio result in assay [3] is recorded as “A (an IC50 ratio greater than or equal to 10 fold)”.

With `Cc1ccc([C@@H]2CC[C@@H](C)CN2C(=O)C(=O)Nc2cncc(C(N)=O)c2)cc1Cl` (single isomer, unassigned) [Compound 485], the IC50 in assay [1] was more than 1000 nM; in assay [2], more than 10000 nM; in assay [3], more than 1000 nM; on PRMT5 [4] it was more than 500 nM; at PRMT5 [5] it was more than 500 nM; at PRMT5 [6] it was more than 500 nM. The MTAP intact/deleted ratio entry in assay [3] is given as “C (an IC50 ratio of less than 3 fold)”.

For the compound `C[C@@H]1CC[C@@H](C2CCC(F)(F)CC2)N(C(=O)C(=O)Nc2cncc(C(N)=O)c2)C1` (single isomer, unassigned) [Compound 486], the IC50 in assay [1] is more than 1000 nM; in assay [2], more than 10000 nM; in assay [3], more than 1000 nM; on PRMT5 [4], more than 500 nM; at PRMT5 [5] it was more than 500 nM; on PRMT5 [6], more than 500 nM. The MTAP intact/deleted ratio entry in assay [3] is given as “C (an IC50 ratio of less than 3 fold)”.

Consider `Cc1cc(NC(=O)C(=O)N2C[C@@H](C)CC[C@@H]2c2cc(F)c(F)c(F)c2)cnc1N` (single isomer, unassigned) [Compound 487], for which the IC50 in assay [1] is more than 1000 nM; in assay [2] it was more than 10000 nM; in assay [3], more than 1000 nM; on PRMT5 [4], more than 500 nM; on PRMT5 [5], more than 500 nM; at PRMT5 [6], more than 500 nM. In addition, the MTAP intact/deleted ratio entry in assay [3] is “C (an IC50 ratio of less than 3 fold)”.

Regarding `C[C@H]1CC[C@H](c2ccc(Cl)c(Cl)c2)N(C(=O)C(=O)Nc2cncc(C(N)=O)c2)C1` (single isomer, unassigned) [Compound 488], the IC50 in assay [1] was more than 1000 nM; in assay [2] it was 1000 to 10000 nM; in assay [3], 100 to 1000 nM; on PRMT5 [4] it was less than 50 nM; on PRMT5 [5] it was 50 to 500 nM; at PRMT5 [6] it was 50 to 500 nM. Moreover, the MTAP intact/deleted ratio result in assay [3] was “A (an IC50 ratio greater than or equal to 10 fold)”.

As for `C[C@@H]1CC[C@@H](c2ccc(Cl)c(Cl)c2)N(C(=O)C(=O)Nc2cncc(C(N)=O)c2)C1` (single isomer, unassigned) [Compound 489], the IC50 was more than 1000 nM in assay [1]; more than 10000 nM in assay [2]; more than 1000 nM in assay [3]; more than 500 nM on PRMT5 [4]; more than 500 nM on PRMT5 [5]; more than 500 nM at PRMT5 [6]. For the same compound, the MTAP intact/deleted ratio result in assay [3] is “C (an IC50 ratio of less than 3 fold)”.

`C[C@@H]1CC[C@@H](c2cc(Cl)cc(Cl)c2)N(C(=O)C(=O)Nc2cncc(C(N)=O)c2)C1` (single isomer, unassigned) [Compound 490]: the IC50 is more than 1000 nM in assay [1]; more than 10000 nM in assay [2]; more than 1000 nM in assay [3]; more than 500 nM on PRMT5 [4]; more than 500 nM on PRMT5 [5]; more than 500 nM at PRMT5 [6]. Further, the MTAP intact/deleted ratio result in assay [3] is given as “C (an IC50 ratio of less than 3 fold)”.

With `C[C@H]1CC[C@H](c2cc(Cl)cc(Cl)c2)N(C(=O)C(=O)Nc2cncc(C(N)=O)c2)C1` (single isomer, unassigned) [Compound 491], the IC50 in assay [1] is more than 1000 nM; in assay [2], 1000 to 10000 nM; in assay [3], 100 to 1000 nM; on PRMT5 [4], less than 50 nM; at PRMT5 [5], 50 to 500 nM; at PRMT5 [6] it was 50 to 500 nM. The MTAP intact/deleted ratio entry in assay [3] was “A (an IC50 ratio greater than or equal to 10 fold)”.

For `C[C@@H]1CC[C@@H](c2ccc(N)nc2)N(C(=O)C(=O)Nc2cncc(C(N)=O)c2)C1` (single isomer, unassigned) [Compound 492], the IC50 in assay [1] was more than 1000 nM; in assay [2], 1000 to 10000 nM; in assay [3] it was less than 100 nM; on PRMT5 [4], less than 50 nM; on PRMT5 [5] it was less than 50 nM; on PRMT5 [6], 50 to 500 nM. Besides, in assay [3], the MTAP intact/deleted ratio entry is reported as “A (an IC50 ratio greater than or equal to 10 fold)”.

`C[C@H]1CC[C@H](c2ccc(N)nc2)N(C(=O)C(=O)Nc2cncc(C(N)=O)c2)C1` (single isomer, unassigned) [Compound 493]: the IC50 was more than 1000 nM in assay [1]; more than 10000 nM in assay [2]; more than 1000 nM in assay [3]; more than 500 nM on PRMT5 [4]; more than 500 nM at PRMT5 [5]; more than 500 nM on PRMT5 [6]. Also, the MTAP intact/deleted ratio entry in assay [3] is given as “C (an IC50 ratio of less than 3 fold)”.

For `Cc1cc(NC(=O)C(=O)N2C[C@H](C)CC[C@H]2c2cccc(C(F)(F)F)c2)cnc1N` (single isomer, unassigned) [Compound 496], the IC50 in assay [1] was more than 1000 nM; in assay [2], 1000 to 10000 nM; in assay [3], less than 100 nM; on PRMT5 [4], less than 50 nM; at PRMT5 [5], less than 50 nM; on PRMT5 [6] it was 50 to 500 nM. Also, the MTAP intact/deleted ratio result in assay [3] was “A (an IC50 ratio greater than or equal to 10 fold)”.

With `Cc1cc(NC(=O)C(=O)N2C[C@H](C)CC[C@H]2c2ccc(NS(C)(=O)=O)cc2)cnc1N` (single isomer, unassigned) [Compound 499], the IC50 in assay [1] is more than 1000 nM; in assay [2], less than 1000 nM; in assay [3], 100 to 1000 nM; at PRMT5 [4], less than 50 nM; at PRMT5 [5], less than 50 nM; at PRMT5 [6], 50 to 500 nM. In addition, the MTAP intact/deleted ratio entry in assay [3] is given as “A (an IC50 ratio greater than or equal to 10 fold)”.

Consider `Cc1cc(NC(=O)C(=O)N2C[C@@H](C)CC[C@@H]2c2ccc3c(c2)CCCN3)cnc1N` (single isomer, unassigned) [Compound 503], for which the IC50 in assay [1] was more than 1000 nM; in assay [2] it was more than 10000 nM; in assay [3] it was more than 1000 nM; on PRMT5 [4] it was more than 500 nM; on PRMT5 [5], more than 500 nM; at PRMT5 [6], more than 500 nM. In assay [3], the MTAP intact/deleted ratio entry is on record as “C (an IC50 ratio of less than 3 fold)”.

As for `Cc1cc(NC(=O)C(=O)N2C[C@H](C)CC[C@H]2c2ccc3c(c2)CCCN3)cnc1N` (single isomer, unassigned) [Compound 504], the IC50 in assay [1] was 100 to 1000 nM; in assay [2], less than 1000 nM; in assay [3], less than 100 nM; on PRMT5 [4] it was less than 50 nM; on PRMT5 [5], less than 50 nM; on PRMT5 [6], 50 to 500 nM. Further, the MTAP intact/deleted ratio result in assay [3] is reported as “A (an IC50 ratio greater than or equal to 10 fold)”.

(Values after patent US11999727B2 (Tango Therapeutics, Inc., priority 2020, dated 2024).)
